Test results from patent US10112958B2, “N-[2-(2-amino-6,6-disubstituted-4,4a,5,6-tetrahydropyrano[3,4-d][1,3]thiazin-8a(8H)-YL)-1,3-thiazol-4-YL] amides” (Pfizer Inc., priority 2015, dated 2018).

Molecular target: T1, BACE1 enzyme (Homo sapiens, UniProt P56817)
T1 construct: transfected with a soluble BACE construct (BACE1deltaTM96His); His (C); made in house; host or cells: CHO-K1 cells (secreted into conditioned media)
Assay: BACE1 Cell-Free Assay (fluorescence polarization, cleavage of synthetic APP substrate)
Format: biochemical
Settings: geometric mean of 2-4 determinations unless otherwise indicated (b: ≥5 determinations; c: single determination); 0.1 nM BACE1, 150 nM peptide substrate, pH 4.5, 3 hours at 37° C.
From the text: BACE1 Cell-Free Assay: Beta-secretase (BACE) is one of the enzymes involved in the generation of the amyloid beta peptide found in the amyloid plaques of Alzheimer's disease patients. This assay measures the inhibition of the beta-secretase enzyme as it cleaves a non-native peptide.
A synthetic APP substrate that can be cleaved by beta-secretase having N-terminal biotin and made fluorescent by the covalent attachment of Oregon Green at the Cys residue is used to assay beta-secretase activity in the presence or absence of the inhibitory compounds. The substrate is Biotin-GLTNIKTEEISEISY^EVEFR-C[Oregon Green]KK-OH. The BACE1 enzyme is affinity purified material from conditioned media of CHO-K1 cells that have been transfected with a soluble BACE construct (BACE1deltaTM96His). Compounds are incubated in a ½ log dose response curve from a top concentration of 100 μM with BACE1 enzyme and the biotinylated fluorescent peptide in 384-well black plates (Thermo Scientific #4318). BACE1 is at a final concentration of 0.1 nM with a final concentration of peptide substrate of 150 nM in a reaction volume of 30 μL assay buffer [100 mM sodium acetate, pH 4.5 (brought to pH with acetic acid), and 0.001% Tween-20]. Plates are covered and incubated for 3 hours at 37° C. The reaction is stopped with the addition of 30 μL of 1.5 μM Streptavidin (Pierce, #21125). After a 10 minute incubation at room temperature, plates are read on a PerkinElmer EnVision for fluorescence polarization (Ex485 nm/Em530 nm). The activity of the beta-secretase enzyme is detected by changes in the fluorescence polarization that occur when the substrate is cleaved by the enzyme.

T1 sequence (P56817 46-457 limits assumed): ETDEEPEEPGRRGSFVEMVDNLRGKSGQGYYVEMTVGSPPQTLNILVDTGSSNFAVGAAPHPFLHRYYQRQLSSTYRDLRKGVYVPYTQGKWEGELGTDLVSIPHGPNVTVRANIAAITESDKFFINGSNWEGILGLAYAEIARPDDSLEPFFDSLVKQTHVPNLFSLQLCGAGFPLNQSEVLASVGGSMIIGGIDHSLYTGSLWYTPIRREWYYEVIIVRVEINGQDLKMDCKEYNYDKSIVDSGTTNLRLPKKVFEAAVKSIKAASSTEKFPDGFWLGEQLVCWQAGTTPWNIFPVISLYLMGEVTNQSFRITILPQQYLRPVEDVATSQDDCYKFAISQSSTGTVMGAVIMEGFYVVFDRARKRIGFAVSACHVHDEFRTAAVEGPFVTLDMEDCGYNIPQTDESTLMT

SMILES	IC50
CC(F)(F)Oc1ccc(C(=O)Nc2csc([C@@]34COC(C)(C)C[C@@H]3CSC(N)=N4)n2)nc1 (single isomer, unassigned) [Example 16]	28500 nM
CC#CCOc1cnc(C(=O)Nc2csc([C@@]34COC(C)(C)C[C@@H]3CSC(N)=N4)n2)cn1 (single isomer, unassigned) [Example 20]	15500 nM
CC(F)(F)COc1cnc(C(=O)Nc2csc([C@]34COC(C)(C)C[C@H]3CSC(N)=N4)n2)cn1 (single isomer, unassigned) [Example 19]	421 nM
CC1(C)C[C@@H]2CSC(N)=N[C@]2(c2nc(NC(=O)c3ccc(OC(F)F)cn3)cs2)CO1 (single isomer, unassigned) [Example 15]	22200 nM
COC[C@@]1(C)C[C@H]2CSC(N)=N[C@@]2(c2nc(NC(=O)c3ccc(OC(F)F)cn3)cs2)CO1 [Example 9, N-{2-[(4aR,6R,8aR)-2-amino-6-(methoxymethyl)-6-methyl-4,4a,5,6-tetrahydropyrano[3,4-d][1,3]thiazin-8a(8H)-yl]-1,3-thiazol-4-yl}-5-(difluoromethoxy) pyridine-2-carboxamide]	105 nM
CC1(C)C[C@@H]2CSC(N)=N[C@]2(c2nc(NC(=O)c3cnc(OC(F)F)cn3)cs2)CO1 (single isomer, unassigned) [Example 13]	7950 nM
CC1(C)C[C@H]2CSC(N)=N[C@@]2(c2nc(NC(=O)c3coc(CF)n3)cs2)CO1 (single isomer, unassigned) [Example 23]	17 nM
CC#CCOc1ccc(C(=O)Nc2csc([C@@]34COC(C)(C)C[C@@H]3CSC(N)=N4)n2)nc1 (single isomer, unassigned) [Example 1]	31000 nM
Cc1cc(OC(F)F)cnc1C(=O)Nc1csc([C@@]23COC(C)(C)C[C@@H]2CSC(N)=N3)n1 (single isomer, unassigned) [Example 25]	14800 nM
CC1(C)C[C@@H]2CSC(N)=N[C@]2(c2nc(NC(=O)c3ccn(C(F)F)n3)cs2)CO1 (single isomer, unassigned) [Example 11]	6960 nM

Next, values leading:

IC50	SMILES
314 nM	NC1=N[C@@]2(c3nc(NC(=O)c4ccc(OC(F)F)cn4)cs3)COC3(CC3)C[C@H]2CS1 (single isomer, unassigned) [Example 39, N-{2-[(4a′R,8a′R)-2′-amino-4a′,5′-dihydro-4′H-spiro[cyclopropane-1,6′-pyrano[3,4-d] [1,3]thiazin]-8a′(8′H)-yl]-1,3-thiazol-4-yl}-5-(difluoromethoxy)pyridine-2-carboxamide]
675 nM	NC1=N[C@@]2(c3nc(NC(=O)c4ccc(OC(F)F)cn4)cs3)COC3(COC3)C[C@H]2CS1 [Example 29, N-{2-[(4a′R,8a′R)-2′-amino-4a′,5′-dihydro-4′H-spiro[oxetane-3,6′-pyrano[3,4-d][1,3]thiazin]-8a′(8′H)-yl]-1,3-thiazol-4-yl}-5-(difluoromethoxy)pyridine-2-carboxamide]
2080 nM	COC[C@]1(C)C[C@H]2CSC(N)=N[C@@]2(c2nc(NC(=O)c3ccc(OC(F)F)cn3)cs2)CO1 [Example 40, N-{2-[(4aR,6S,8aR)-2-amino-6-(methoxymethyl)-6-methyl-4,4a,5,6-tetrahydropyrano[3,4-d][1,3]thiazin-8a(8H)-yl]-1,3-thiazol-4-yl}-5-(difluoromethoxy) pyridine-2-carboxamide]
177 nM	CC[C@@]1(C)C[C@H]2CSC(N)=N[C@@]2(c2nc(NC(=O)C3C4CC3C4)cs2)CO1 (stereo partly drawn) [Example 37, N-{2-[(4aR,6S,8aR)-2-amino-6-ethyl-6-methyl-4,4a,5,6-tetrahydropyrano[3,4-d][1,3]thiazin-8a(8H)-yl]-1,3-thiazol-4-yl}bicyclo[1.1.1]pentane-2-carboxamide]
194 nM	C[C@@]1(CF)C[C@H]2CSC(N)=N[C@@]2(c2nc(NC(=O)c3ccc(OC(F)F)cn3)cs2)CO1 [Example 34, N-{2-[(4aR,6S,8aR)-2-amino-6-(fluoromethyl)-6-methyl-4,4a,5,6-tetrahydropyrano[3,4-d][1,3]thiazin-8a(8H)-yl]-1,3-thiazol-4-yl}-5-(difluoromethoxy) pyridine-2-carboxamide]
